Test results as given in ChEMBL document CHEMBL1141615, “Targeting RNA with cysteine-constrained peptides” (Bioorg Med Chem Lett, 2008).

Assay: Binding affinity to BIV transactivating response element RNA
Set-up: species or system Bovine immunodeficiency virus

Kd	Compound
9.1 µM	C[C@@H](O)[C@@H]1NC(=O)[C@H](CO)NC(=O)[C@H](Cc2c[nH]c3ccccc23)NC(=O)[C@H](CCC(N)=O)NC(=O)[C@H](Cc2cnc[nH]2)NC(=O)[C@H]([C@@H](C)O)NC(=O)[C@@H](N)CSSC[C@H](C(N)=O)NC(=O)[C@H](CCCCN)NC1=O
7.9 µM	C[C@@H](O)[C@@H]1NC(=O)CNC(=O)[C@@H](N)CSSC[C@H](C(N)=O)NC(=O)[C@H](CCC(N)=O)NC(=O)[C@@H]2CCCN2C(=O)[C@H](Cc2c[nH]cn2)NC(=O)[C@H](Cc2cnc[nH]2)NC(=O)[C@H](Cc2c[nH]c3ccccc23)NC1=O
